In PubChem BioAssay AID1549 (Sanford-Burnham Center for Chemical Genomics, 2009):
The source made the active and inactive calls. No rule for the calls is given here.

target: Influenza A virus M2 proton channel (A/TW/4845/1999 H1N1); test: NMR binding screen, influenza A virus M2 proton channel, Kd (AID 1549); details: M2 protein

SMILES	Kd
O=C1Cn2c(nc3ccccc32)N1c1ccccc1F	> 4 mM (inactive)
Cc1ccc(C(=O)N2CC(=O)NC(=O)C2)cc1	> 4 mM (inactive)
COc1ccc(-c2c(O)c3c(OC)c4c(cc3oc2=O)OC(C)(C)CC4)cc1	> 4 mM (inactive)
NC(=O)CN1CCC(c2nc3ccccc3[nH]2)CC1	> 4 mM (inactive)
O=C(O)c1sccc1-n1cccc1	> 4 mM (inactive)
COc1c(CC=C(C)C)c2c(c3oc(=O)c(-c4ccc(O)cc4)c(O)c13)C=CC(C)(C)O2	> 4 mM (inactive)
Cc1occc1C(=O)Nc1nnc(C2CCCCC2)s1	> 4 mM (inactive)
Cc1ccccc1NC(=O)CC1NCCNC1=O (stereo not drawn)	> 4 mM (inactive)
COC(=O)c1c(C)cc(OC)cc1O	> 4 mM (inactive)
Cc1nn(C)c2sc(C(=O)O)cc12	> 4 mM (inactive)
CN(C)/C=N/S(=O)(=O)c1ccccc1	> 4 mM (inactive)
S=C(NCc1cccnc1)NC1CC1	> 4 mM (inactive)
Cc1noc(-c2ccccc2)c1CO	> 4 mM (inactive)
C=C1[C@H]2CC[C@@]3(C)[C@H](c4ccoc4)OC(=O)C[C@]13O[C@H]1C[C@H](O)C(C)(C)[C@H](CC(=O)OC)[C@]12C	> 4 mM (inactive)
Cc1nnsc1C(=O)Nc1ccc(C(N)=O)cc1	> 4 mM (inactive)
OC[C@H]1O[C@@H](O[C@H]2[C@H](O)[C@@H](O)[C@@H](O)O[C@@H]2CO)[C@H](O)[C@@H](O)[C@@H]1O	> 4 mM (inactive)
CC(=O)c1c(O)n(C)c(=S)n(C)c1=O	> 4 mM (inactive)
O=C(O)C1CCN(S(=O)(=O)c2cccs2)CC1	> 4 mM (inactive)
Nc1csc(C(=O)O)c1	> 4 mM (inactive)
COC(=O)Nc1ccc2ncn(C)c(=O)c2c1	> 4 mM (inactive)
COc1ccc(C[C@H]2NC[C@H](O)[C@H]2OC(C)=O)cc1	> 4 mM (inactive)
CCOc1ccc2ccccc2c1C(=O)N1CCOCC1	> 4 mM (inactive)
O=S(=O)(Cc1ccccc1Cl)Nc1ccccn1	> 4 mM (inactive)

SMILES	Kd
NCc1cc2ccccc2s1	> 4 mM (inactive)
CC(=O)O[C@H]1C[C@@H](OC(C)=O)C(C)(C)C2C[C@@H](OC(C)=O)[C@]3(C)C([C@H](OC(C)=O)C[C@@]4(C)[C@H](c5ccoc5)OC(=O)[C@H]5O[C@]543)[C@]21C (stereo partly drawn)	> 4 mM (inactive)
Cc1cc(C(F)(F)F)n2nc(C(=O)O)c(Cl)c2n1	> 4 mM (inactive)
Nc1ccc(C(=O)NCC2CCCO2)cc1 (stereo not drawn)	> 4 mM (inactive)
CCOC(=O)c1c(C)cc(O)c(C=O)c1O	> 4 mM (inactive)
CC(N)C(=O)c1ccco1 (stereo not drawn)	> 4 mM (inactive)
Cc1c(C(=O)NCc2ccccn2)oc2ccccc12	> 4 mM (inactive)
NC(=O)c1oc2ccccc2c1N	> 4 mM (inactive)
NS(=O)(=O)c1ccc(NC(=O)c2cccs2)cc1	> 4 mM (inactive)
O=C(O)[C@H](O)[C@@](O)(Cc1ccc(O)cc1)C(=O)O	> 4 mM (inactive)
Cc1ccc(SCc2nc(-c3cccnc3)no2)cc1	> 4 mM (inactive)
O=C(O)C1CN(Cc2ccccc2)CCO1 (stereo not drawn)	> 4 mM (inactive)
CC(C)[C@@H]1CC[C@@H](C)C[C@H]1O	> 4 mM (inactive)
CC1=C(/C=C/C(C)=C/C=C/C(C)=C/C=C/C=C(C)/C=C/C=C(C)/C=C/C(=O)[C@]2(C)C[C@@H](O)CC2(C)C)C(C)(C)C[C@H](O)C1	> 4 mM (inactive)
Cc1ccc(CN2CCN(C(=O)C3CCC3)CC2)cc1	> 4 mM (inactive)
COc1cc2c(cc1O)CCNC2C (stereo not drawn)	> 4 mM (inactive)
COc1cccc(C(=O)Nc2c(C)n[nH]c2C)c1	> 4 mM (inactive)
O=C(CS(=O)(=O)c1ccccc1)Nc1nccs1	> 4 mM (inactive)
Cc1ccc(SCCN2C(=O)NC(C)(C)C2=O)cc1	> 4 mM (inactive)
Cc1c(CO)cnn1-c1ccc(F)cc1	> 4 mM (inactive)
Cc1ccc(-c2nn(C)c(=O)c3ccccc23)cc1CO	> 4 mM (inactive)
CN1C(=O)C(Cc2c[nH]c3ccccc23)C(=O)N(C)C1=O	> 4 mM (inactive)
CCOc1ccc(Cl)cc1S(=O)(=O)N1CCCC1	> 4 mM (inactive)

SMILES	Kd
CC1(C)C(=O)[C@@H]2O[C@@H]2[C@@]2(C)C1C[C@@H](O)[C@]1(C)C2CC[C@@]2(C)[C@H](c3ccoc3)OC(=O)C3OC321 (stereo partly drawn)	> 4 mM (inactive)
CCOC(=O)c1c(C)cc(O)c(C)c1O	> 4 mM (inactive)
NCc1ccc2c(c1)CCO2	> 4 mM (inactive)
O=C(CSc1ncccn1)Nc1nccs1	> 4 mM (inactive)
C=CCNC(=O)c1nn2cccnc2c1Cl	> 4 mM (inactive)
Cc1cc(C)c2nncn2n1	> 4 mM (inactive)
OCCCc1nc2ccccc2[nH]1	> 4 mM (inactive)
Cc1cccc(-n2c(N)cc(=O)[nH]c2=S)c1C	> 4 mM (inactive)
c1ccc2[nH]c(SCc3cscn3)nc2c1	> 4 mM (inactive)
C[C@@H]1CC[C@@]2(NC1)O[C@H]1C[C@H]3C4CC=C5C[C@@H](O)CC[C@]5(C)C4CC[C@]3(C)C1[C@@H]2C (stereo partly drawn)	> 4 mM (inactive)
OCc1csc(-c2ccccc2)n1	> 4 mM (inactive)
NC1=NCc2ccccc21	> 4 mM (inactive)
O=C(Nc1cccnc1)c1ccc(Br)s1	> 4 mM (inactive)
NC(=O)CCN1C(=O)c2ccccc2C1=O	> 4 mM (inactive)
Nc1ccncc1	> 4 mM (inactive)
CC(C)CCCC(C)C1CCC2C3=CC[C@H]4C[C@@H](O)CC[C@]4(C)C3CC[C@@]21C (stereo partly drawn)	> 4 mM (inactive)
CC(=O)NC1=C(N(C)C)C(=O)c2ccccc2C1=O	> 4 mM (inactive)
Cc1ccc(NC(=O)CN2C(=O)CSC2=O)cc1	> 4 mM (inactive)
O=C(Nn1c(=S)[nH]c2ccccc2c1=O)c1ccncc1	> 4 mM (inactive)
NC(=O)C1CCN(C(=O)CN2CCc3ccccc32)CC1	> 4 mM (inactive)
Cn1cnnc1SCC(=O)Nc1nccs1	> 4 mM (inactive)
COc1cc(C)c2c(c1C=O)Oc1c(c(C)c(O)c3c1C(O)OC3=O)OC2=O (stereo not drawn)	> 4 mM (inactive)
CC(=O)n1nc(-c2cccnc2)nc1N	> 4 mM (inactive)

SMILES	Kd
CC(=O)N1C(=S)NC(=O)/C1=C\c1cccnc1	> 4 mM (inactive)
O=C1NCCCC1C(=O)N1CCCCC1 (stereo not drawn)	> 4 mM (inactive)
Oc1cc(O)c2c(c1)O[C@H](c1ccc(O)c(O)c1)[C@H](O)C2	> 4 mM (inactive)
Cc1cc(C)nc(/N=C(/N)N2CCN(C)CC2)n1	> 4 mM (inactive)
Cn1c(=O)n(C)c2cc(C(N)=O)ccc21	> 4 mM (inactive)
COc1ccc2[nH]cc(CCNC(C)=O)c2c1	> 4 mM (inactive)
NC(=O)Cc1nc(-c2ccc(F)cc2)cs1	> 4 mM (inactive)
O=C(/C=C1\SC(=O)NC1=O)NCc1ccccc1	> 4 mM (inactive)
O=C(Cn1cncn1)c1ccc(F)c(F)c1	> 4 mM (inactive)
CCNS(=O)(=O)c1cc(Br)ccc1OC	> 4 mM (inactive)
C=C1C2CC[C@@]3(C)[C@H](c4ccoc4)OC(=O)C[C@]13O[C@H]1C[C@H](OC(C)=O)C(C)(C)[C@H](CC(=O)OC)[C@@]21C	> 4 mM (inactive)
OC12CC3CC(C1)C1(NCCS1)C(C3)C2 (stereo not drawn)	> 4 mM (inactive)
CC1CCN(C(=S)c2ccccc2O)CC1	> 4 mM (inactive)
COc1ccc(N2C(=N)C(C)(C)NC2=O)cc1	> 4 mM (inactive)
CC1(C)NCCN2C(=O)CSC21 (stereo not drawn)	> 4 mM (inactive)
N[C@@H](CCC(=O)N[C@@H](CS)C(=O)NCC(=O)O)C(=O)O	> 4 mM (inactive)
O=C(CSc1nnc2ccccn12)N1CCOCC1	> 4 mM (inactive)
O=C1c2ccccc2C(=O)c2c(O)c(O)cc(O)c21	> 4 mM (inactive)
CC(=O)c1cccc(NC(=O)NN2CCOCC2)c1	> 4 mM (inactive)
Cc1ccc2nc(NC(=O)CN3CCOCC3)sc2c1	> 4 mM (inactive)
C=C1C([C@]2(C)C(CC(=O)OC)[C@@](C)(COC(C)=O)OC(=O)C[C@@H]2OC(C)=O)[C@@H](OC=O)[C@H](OC(=O)C(OC(C)=O)C(C)CC)[C@@]2(C)[C@H](c3ccoc3)CC(=O)C12O (stereo partly drawn)	> 4 mM (inactive)
CC1(C)C2CC(=O)[C@]3(C)C(CC[C@@]4(C)[C@H](c5ccoc5)OC(=O)[C@H]5O[C@]543)[C@@]2(C)C(=O)C[C@H]1O (stereo partly drawn)	> 4 mM (inactive)
CC1O[C@@H](Oc2c(-c3ccc(O)c(O)c3)oc3cc(O)cc(O)c3c2=O)[C@H](O)[C@H](O)[C@H]1O (stereo partly drawn)	> 4 mM (inactive)

SMILES	Kd
C=CCCCCCCCCCCCC(O)CC(O)COC(C)=O (stereo not drawn)	> 4 mM (inactive)
CC(Sc1ncn[nH]1)C(=O)O (stereo not drawn)	> 4 mM (inactive)
O=S1(=O)CCC(NC(=S)N2CCCCC2)C1 (stereo not drawn)	> 4 mM (inactive)
NC1CS(=O)(=O)CC1O (stereo not drawn)	> 4 mM (inactive)
CCC(=O)Oc1ccc(N2C(=O)CCC2=O)cc1	> 4 mM (inactive)
Cc1ccc2[nH]c3nc(=S)[nH]nc3c2c1	> 4 mM (inactive)
O=c1[nH]c(N2CCOCC2)nc2ccccc12	> 4 mM (inactive)
Nc1ccc2c(c1)COc1ccccc1O2	> 4 mM (inactive)
Nc1ccc(Cl)nn1	> 4 mM (inactive)
NC(=O)c1ccsc1NC(=O)c1ccco1	> 4 mM (inactive)
O=S(=O)(N1CCCCC1)n1nnc2ccccc21	> 4 mM (inactive)
CN1CCN(C(=O)/C=C\C(=O)O)CC1	> 4 mM (inactive)
Cc1cc(C(=O)NCc2cccnc2)no1	> 4 mM (inactive)
O=C1CC2OCC=C3CN4CC[C@]56c7ccccc7N1C5[C@H]2[C@H]3CC46 (stereo partly drawn)	> 4 mM (inactive)
O=C(c1nc2ncccn2n1)N1CCc2ccccc2C1	> 4 mM (inactive)
O=C(O)CNCC(O)Cn1c2ccccc2c2ccccc21 (stereo not drawn)	> 4 mM (inactive)
CC(=O)Oc1ccc(O)cc1	> 4 mM (inactive)
Cc1n[nH]c(=S)n(/N=C/c2ccccc2)c1=O	> 4 mM (inactive)
CSc1nc2nc(C)cc(=O)n2[nH]1	> 4 mM (inactive)
CC(=O)NCCc1cc2ccc(C)c(C)c2[nH]c1=O	> 4 mM (inactive)
S=C(Cc1cccnc1)N1CCOCC1	> 4 mM (inactive)
